In the assay the target is T1, angiotensin converting enzyme (ACE) (Rattus norvegicus, UniProt P47820).
T1 construct: from tissue; host or cells: rat serum
T1 sequence (P47820 36-1313): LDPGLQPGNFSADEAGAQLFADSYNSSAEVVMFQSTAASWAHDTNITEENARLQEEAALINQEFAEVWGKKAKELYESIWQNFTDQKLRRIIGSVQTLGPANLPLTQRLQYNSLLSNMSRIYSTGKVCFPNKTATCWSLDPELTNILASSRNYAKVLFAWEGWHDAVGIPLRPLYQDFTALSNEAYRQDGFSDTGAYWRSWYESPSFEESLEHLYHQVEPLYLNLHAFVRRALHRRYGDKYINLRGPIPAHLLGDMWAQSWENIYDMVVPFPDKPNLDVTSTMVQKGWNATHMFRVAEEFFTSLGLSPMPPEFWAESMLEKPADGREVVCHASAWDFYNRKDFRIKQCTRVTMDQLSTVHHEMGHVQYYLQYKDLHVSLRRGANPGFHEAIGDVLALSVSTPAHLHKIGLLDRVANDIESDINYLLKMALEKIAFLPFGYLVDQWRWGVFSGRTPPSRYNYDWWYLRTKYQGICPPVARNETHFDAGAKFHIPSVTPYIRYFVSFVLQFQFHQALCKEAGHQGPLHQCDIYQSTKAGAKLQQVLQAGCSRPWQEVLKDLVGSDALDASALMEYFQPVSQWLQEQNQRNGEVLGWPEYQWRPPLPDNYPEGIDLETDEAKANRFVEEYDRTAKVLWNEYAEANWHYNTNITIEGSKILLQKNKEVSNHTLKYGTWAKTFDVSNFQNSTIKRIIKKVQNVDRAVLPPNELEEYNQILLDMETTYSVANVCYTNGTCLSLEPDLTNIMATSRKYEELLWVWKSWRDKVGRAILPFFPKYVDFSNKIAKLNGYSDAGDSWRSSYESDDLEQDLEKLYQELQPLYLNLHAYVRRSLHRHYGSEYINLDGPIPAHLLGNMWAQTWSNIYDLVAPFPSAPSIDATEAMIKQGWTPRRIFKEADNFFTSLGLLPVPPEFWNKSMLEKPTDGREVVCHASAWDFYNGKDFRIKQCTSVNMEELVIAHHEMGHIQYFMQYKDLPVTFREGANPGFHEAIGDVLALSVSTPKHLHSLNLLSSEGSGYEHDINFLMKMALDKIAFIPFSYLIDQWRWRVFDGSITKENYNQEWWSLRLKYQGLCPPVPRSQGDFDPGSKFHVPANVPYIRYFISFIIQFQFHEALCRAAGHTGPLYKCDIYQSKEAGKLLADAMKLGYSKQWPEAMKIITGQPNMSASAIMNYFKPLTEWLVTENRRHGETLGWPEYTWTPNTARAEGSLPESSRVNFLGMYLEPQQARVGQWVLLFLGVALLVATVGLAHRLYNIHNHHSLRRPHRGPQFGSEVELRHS
The assay is described as follows: Serum Angiotensin Converting Enzyme (ACE) activity. Format: in vivo, Zucker Fatty Rats. The protocol:
Serum ACE activity was measured by a commercial kit (Sigma Co. Ltd, St. Louis, Mo.). This spectrophotometric method utilizes the synthetic tripeptide substrate N-[3-(2-furyl)acryloyl]-phenylalanylglcylglcine (FAPGG). FAPGG is hydrolyzed by ACE to furylacryloylphenylalanine (FAP) and glycylglycine. Hydrolysis of FAPGG results in a decreased absorbency at 340 nm. Serum ACE activity was determined by comparing the sample reaction rate to that obtained with an appropriate ACE calibrator.

As for `CC1=C(/C=C/C(C)=C/C=C/C(C)=C/C=C/C=C(C)/C=C/C=C(C)/C=C/C2=C(C)C(=O)[C@@H](O)CC2(C)C)C(C)(C)C[C@H](O)C1=O` [Asta, astaxanthin], the ACE activity turned out to be 24.2 ± 1.3 units (Experiment 2, Hi Asta, astaxanthin 25 mg/kg in feed) and 27.1 ± 1.4 units (Experiment 2, Lo Asta, astaxanthin 5 mg/kg in feed).
